{
  "source": "patent US20070264659A1",
  "about": "“LUNG CANCER BIOMARKER DISCOVERY” (priority 2006, published 2007)",
  "tested_on": "lung cancer cell lines A549, NCI-H146 and NCI-H358",
  "test": "Reactivation of 20 identified genes by treatment of demethylating agent (gene expression)",
  "format": "cell-based",
  "conditions": "lung cancer cells treated with DAC compared with untreated cells; FIG. 4B",
  "description": "Separately, lung cancer cell lines such as A549, NCI-H146 and NCI-H358 are treated with a demethylating agent DAC and assayed for reactivation of genes that are normally repressed in tumor cells. Overlapping genes between the tumor suppressed gene set and the demethylation reactivated gene set are considered to be candidate genes for lung cancer biomarkers. One hundred six (106) such overlapping genes were found (FIG. 1). Methylation sensitive enzyme/nucleic acid sequence based amplification analysis such as Hpa II Mspl enzyme digestion/PCR (or enzyme digestion post-PCR) further removed a few other genes that were not methylated in any of the lung cancer cell lines. To further confirm biochemically that the candidate gene was indeed methylated in tumor cells, bisulfite sequencing assays were conducted and methylation of the final 20 genes was verified.\nGene expression profiles of the 20 genes were created. The expression level of the 20 genes was measured in lung cancer cell lines treated with DAC (FIG. 4B). Methylation status of the genes was also measured using methylation sensitive enzyme/nucleic acid sequence based amplification analysis such as Hpa II/MspI enzyme digestion/PCR (or enzyme digestion post-PCR) method on lung cancer cell lines and the results for the 20 genes is shown in FIG. 4A. The identified genes are not methylated in normal cells. […]",
  "data": [
    {"smiles": "Nc1ncn([C@H]2C[C@H](O)[C@@H](CO)O2)c(=O)n1", "note": "[DAC, 5 aza 2′-deoxycytidine]", "values": [
      {"measurement": "gene expression of the 20 identified genes in lung cancer cells treated with demethylating agent", "value": "reactivated"}
    ]}
  ]
}
